The values below come from ChEMBL document CHEMBL5357007, “Withanolides from Physalis angulata var. villosa and the Relative Configurational Revision of Some Known Analogs” (J Nat Prod, 2024).

What all share (assay type): functional, cell-based
One assay deals with HCT-116. Put plainly: Cytotoxicity against human HCT-116 cells assessed as inhibition of cell growth incubated for 72 hrs by CCK-8 assay. To be noted: HCT-116, 72 h.
For a further assay, the system named is MDA-MB-231. Kind of assay: Cytotoxicity against human MDA-MB-231 cells assessed as inhibition of cell growth incubated for 72 hrs by CCK-8 assay. Conditions: MDA-MB-231, 72 h.
The subject of the next assay is A549. Kind of assay: Cytotoxicity against human A549 cells assessed as inhibition of cell growth incubated for 72 hrs by CCK-8 assay. To be noted: A549, 72 h. Background: Tetrazolium dyes change colour on reduction, which living cells bring about.

Turning to `CCO[C@H]1CC(=O)[C@]2(C)[C@H]3CC[C@]4(C)C([C@H](C)[C@H]5CC(C)=C(C)C(=O)O5)=C[C@H](OC(C)=O)[C@]4(O)[C@@H]3C[C@H]3O[C@]32[C@H]1O`, the IC50 in the assay with HCT-116, with MDA-MB-231 and with A549 was > 10 µM throughout.

For the compound `CC(=O)O[C@H]1C[C@H]([C@H](C)[C@@H]2OC(=O)C(C)=C(C)[C@@H]2O)[C@@]2(C)CC[C@H]3[C@@H](C[C@H]4O[C@]45[C@@H](O)C=CC(=O)[C@]35C)[C@@]12O`, the IC50 – broadly, the point on the concentration scale where inhibition reaches its midpoint – in the assay on HCT-116 is 8.5 µM; in the assay with MDA-MB-231, > 10 µM; in the assay on A549, 9.7 µM.

In the case of `CC(=O)O[C@H]1C[C@](O)([C@H](C)[C@H]2CC(C)=C(C)C(=O)O2)[C@@]2(C)CC[C@H]3[C@@H](C[C@H]4O[C@]45[C@@H](O)C=CC(=O)[C@]35C)[C@@]12O`, the half-maximal inhibitory concentration (IC50) was 1.8 µM in the assay on HCT-116, 4.5 µM in the assay with MDA-MB-231 and 5.9 µM with A549.

With `CCO[C@H]1CC(=O)[C@]2(C)[C@H]3CC[C@]4(C)C([C@H](C)[C@H]5CC(C)=C(C)C(=O)O5)=C[C@H](OC(C)=O)[C@]4(O)[C@@H]3C[C@H]3O[C@]32C1`, the IC50 in the assay on HCT-116, in the assay on MDA-MB-231 and in the assay with A549 was > 10 µM each time.

In the case of `CC(=O)O[C@H]1C=C([C@H](C)[C@H]2CC(C)=C(C)C(=O)O2)[C@@]2(C)CC[C@H]3[C@@H](CC(=O)C4CC=CC(=O)[C@@]43C)[C@@]12O` (stereo not given in full), the IC50 in the assay with HCT-116 is 9.2 µM; with MDA-MB-231, > 10 µM; in the assay on A549, > 10 µM.

As to `CC(=O)O[C@H]1[C@@H]2O[C@]2([C@@H](C)[C@H]2CC(C)=C(C)C(=O)O2)[C@@]2(C)CC[C@H]3[C@@H](C[C@H](Cl)[C@]4(O)CC=CC(=O)[C@]34C)[C@@]12O`, the IC50 with HCT-116, with MDA-MB-231 and with A549 was > 10 µM in each case.

In the case of `CC(=O)O[C@H]1C=C([C@H](C)[C@H]2CC(C)=C(C)C(=O)O2)[C@@]2(C)CC[C@H]3[C@@H](C[C@H]4O[C@]45C[C@@H](O)CC(=O)[C@]35C)[C@@]12O`, the IC50 in the assay on HCT-116, in the assay on MDA-MB-231 and with A549 was > 10 µM in each case.

In the case of `CC(=O)O[C@H]1C=C([C@H](C)[C@H]2CC(C)=C(C)C(=O)O2)[C@@]2(C)[C@H](O)C[C@H]3[C@@H](C[C@@H](O)[C@@]4(O)CC=CC(=O)[C@]34C)[C@@]12O`, the IC50 with HCT-116, with MDA-MB-231 and in the assay with A549 was > 10 µM throughout.

Regarding `CC1=C(C)C(=O)O[C@@H]([C@@H](C)C2=C[C@H](O)[C@]3(O)[C@@H]4C[C@H]5O[C@]56[C@@H](O)CCC(=O)[C@]6(C)[C@H]4CC[C@]23C)C1`, the IC50 with HCT-116, in the assay with MDA-MB-231 and with A549 was > 10 µM in each case.

As to `CO[C@H]1C=C([C@H](C)[C@H]2CC(C)=C(C)C(=O)O2)[C@@]2(C)CC[C@H]3[C@@H](C[C@@H](O)[C@@]4(Cl)CC=CC(=O)[C@]34C)[C@@]12O`, the values for the IC50 in the assay with HCT-116, with MDA-MB-231 and with A549 were 8.8 µM, 9.4 µM and > 10 µM, respectively.

Turning to `CCO[C@H]1CC(=O)[C@]2(C)[C@H]3CC[C@@]4(C)[C@@](O)([C@@H]3C[C@H]3O[C@]32[C@H]1O)[C@@H](OC(C)=O)[C@@H]1O[C@@]14[C@H](C)[C@H]1CC(C)=C(C)C(=O)O1`, the IC50 with HCT-116, with MDA-MB-231 and in the assay on A549 was > 10 µM throughout.

As for `CC(=O)O[C@H]1C[C@H]([C@H](C)[C@H]2CC(C)=C(C)C(=O)O2)[C@@]2(C)CCC3[C@@H](C[C@@H](O)C4=CC=CC(=O)[C@@]43C)[C@@]12O` (stereo not given in full), the IC50 in the assay with HCT-116, in the assay with MDA-MB-231 and in the assay on A549 was > 10 µM throughout.

`CCO[C@H]1CC(=O)[C@]2(C)[C@H]3CC[C@@]4(C)[C@](O)([C@@H](OC(C)=O)C[C@@]4(O)[C@H](C)[C@H]4CC(C)=C(C)C(=O)O4)[C@@H]3C[C@H]3O[C@]32C1`: the IC50 in the assay on HCT-116, with MDA-MB-231 and with A549 was > 10 µM each time.

For the compound `CC(=O)O[C@H]1[C@H](O)[C@](O)([C@H](C)[C@H]2CC(C)=C(C)C(=O)O2)[C@@]2(C)CC[C@H]3[C@@H](C[C@H]4O[C@]45[C@@H](O)C=CC(=O)[C@]35C)[C@@]12O`, the results for the IC50 with HCT-116, in the assay on MDA-MB-231 and in the assay with A549 were 7.2 µM, 9.1 µM and > 10 µM, respectively.

For `CCO[C@H]1CC(=O)[C@]2(C)[C@H]3CC[C@]4(C)[C@@H]([C@H](C)[C@H]5CC(C)=C(C)C(=O)O5)C[C@H](O)[C@]4(O)[C@@H]3C[C@H]3O[C@]32[C@H]1O`, the IC50 in the assay on HCT-116, in the assay on MDA-MB-231 and in the assay with A549 was > 10 µM each time.
